Measurements as given in PubChem BioAssay (NCI).
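Five compound concentrations were applied to cells in 96-well plates for 48 hours; endpoints were derived by simple linear interpolation of the resulting dose-response curve. GI50 = concentration required for 50% inhibition of growth. TGI is the concentration that stops growth completely.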

Experiments:
Experiment in all cases: DTP human tumour cell line panel, 48 h
M14 melanoma = system: M14 melanoma
HCC-2998 colon = system: HCC-2998 colon
KM12 colon = system: KM12 colon
U251 CNS = system: U251 CNS
TK-10 renal = system: TK-10 renal
OVCAR-5 ovarian = system: OVCAR-5 ovarian
MOLT-4 leukemia = system: MOLT-4 leukemia
MALME-3M melanoma = system: MALME-3M melanoma
SK-MEL-2 melanoma = system: SK-MEL-2 melanoma
HOP-62 NSCLC = system: HOP-62 NSCLC

SMILES | GI50 (M14 melanoma) [µM] | TGI (M14 melanoma) [µM] | GI50 (HCC-2998 colon) [µM] | TGI (HCC-2998 colon) [µM] | GI50 (KM12 colon) [µM] | TGI (KM12 colon) [µM] | GI50 (U251 CNS) [µM] | TGI (U251 CNS) [µM] | GI50 (TK-10 renal) [µM] | TGI (TK-10 renal) [µM] | GI50 (OVCAR-5 ovarian) [µM] | TGI (OVCAR-5 ovarian) [µM] | GI50 (MOLT-4 leukemia) [µM] | TGI (MOLT-4 leukemia) [µM] | GI50 (MALME-3M melanoma) [µM] | TGI (MALME-3M melanoma) [µM] | GI50 (SK-MEL-2 melanoma) [µM] | TGI (SK-MEL-2 melanoma) [µM] | GI50 (HOP-62 NSCLC) [µM] | TGI (HOP-62 NSCLC) [µM]
Cc1noc(C)c1-c1cnc2c(-c3ccc(C(=O)O)cc3)cn([C@@H](C)c3ccccn3)c2c1 | 0.629 | > 100 | 0.966 | 10.9 | 2.73 | > 100 | 3.38 | > 100 | 0.405 | > 100 | 4.22 | > 100 | 12.6 | > 100 | 0.635 | > 100 | 7.02 | > 100 | 0.555 | > 100
COc1ccc(-c2nc(N)c(C#N)c3c2CCOc2c-3ccc3ccccc23)cc1 | 66.6 | > 100 | 56.1 | > 100 | 42.7 | > 100 | 14 | 34.4 | 21.5 | 53.2 | 62.2 | > 100 | > 100 | > 100 | 15.2 | 50.1 | 36.8 | > 100 | 20.8 | 49.7
CC[C@@H](O)C[C@H]1CCC[C@@]2(C[C@@H]3OC(=O)/C=C/[C@@](C)(O)[C@@H](O)[C@H](C)[C@@H](O)[C@H](OC4CCC(N(C)C)C(C)O4)[C@@H](O)[C@](C)(O)CCCCC/C=C/[C@@H]4CC(C)(C)O[C@@]4(O)C[C@H](O2)[C@H]3C)O1 (some centres not stated) | – | 7.48 | – | 17.5 | – | 24.4 | – | 36.8 | – | 21.6 | – | 28.1 | – | 23.3 | – | 15.5 | – | 22.7 | – | 26.2
CN(C)CCCCCNc1c2ccccc2nc2cccc([N+](=O)[O-])c12 | – | 0.00312 | 0.00237 | 0.0126 | – | 0.0725 | 0.0065 | 0.0251 | – | 0.0207 | 0.00264 | 0.0115 | 0.00627 | > 0.1 | – | 0.00506 | – | 0.00257 | – | 0.00716
Cn1cc(C2=C(c3ccccc3C(F)(F)F)C(=O)NC2=O)c2ccccc21 | 19.8 | > 25 | > 19.6 | > 25 | 6.97 | > 25 | 7.06 | > 25 | 10.2 | > 25 | > 24.1 | > 25 | 5.89 | > 22.6 | > 18.5 | > 25 | 8.11 | > 24 | 11.8 | > 25
COc1cc(-c2cc3ncccc3c3[nH]c(=O)c4cccnc4c23)cc(OC)c1OC | 0.425 | > 100 | 2.08 | > 100 | 0.651 | > 100 | 0.603 | > 100 | 17.2 | > 100 | > 100 | > 100 | 0.782 | 28.8 | 16.2 | > 100 | 0.833 | > 100 | 7.76 | > 100
O=C(Nc1ccc2c(c1)OCCO2)C(=O)c1c[nH]c2ccccc12 | 0.839 | > 100 | 1.37 | > 100 | 0.469 | > 100 | 1.63 | 15.9 | 6.75 | 31.4 | 3.47 | > 100 | 0.618 | > 100 | 10.5 | > 100 | 2.62 | 32.9 | 2.9 | 21.2
C=C1C(=O)O[C@H]2[C@H]1CC/C(COC(=O)NCCc1cccc(OC)c1)=C\CC[C@@]1(C)O[C@@H]21 | 1.29 | 2.92 | 1.68 | 3.29 | 4.27 | 15.6 | – | – | 1.61 | 3.25 | 2.25 | 6.05 | 2.09 | 5 | 1.84 | 3.61 | 1.73 | 3.65 | 4.39 | 16.6
O=C(/C=C\n1cnc(-c2cc(C(F)(F)F)cc(C(F)(F)F)c2)n1)N1CC(F)(F)C1 | 1.36 | 6.57 | 0.729 | 4.42 | 2.41 | > 25 | 0.248 | 3.66 | 0.645 | 3.7 | 0.671 | > 25 | 0.197 | 0.944 | 1.14 | 5.84 | 0.154 | 1.58 | 0.57 | 3.46
CCOc1ccc(N=Cc2ccnc3ccccc23)cc1 | – | 80 | – | 81.4 | – | > 89.9 | – | > 68.1 | – | > 100 | – | > 100 | – | > 100 | – | > 97.7 | – | > 85.3 | – | > 94
C/C(CC(=O)Nc1ccc(NC(=O)C/C(C)=N\NC(N)=O)cc1)=N/NC(N)=O | – | > 100 | – | > 100 | – | > 100 | – | > 100 | – | > 100 | – | > 100 | – | 97.8 | – | > 100 | – | > 100 | – | > 100
CCC(C)(O)c1cn(-c2ccc(S(=O)(=O)O)cc2)nn1 (configuration not stated) | – | > 100 | – | > 100 | – | > 100 | – | > 100 | – | > 100 | – | > 100 | – | > 100 | – | > 100 | – | > 100 | – | > 100
COc1ccc2c(c1)[n+](=O)c(C(=O)CC(=O)C(=O)Nc1cccc(C)c1C)c(C)n2[O-] | – | > 100 | – | > 100 | – | > 100 | – | > 100 | – | > 100 | – | > 100 | – | > 100 | – | > 100 | – | > 100 | – | > 100
COc1ccc(-c2nn3ncccc3c2-c2ccnc(Nc3ccc4c(c3)OCCO4)n2)cc1 | 8.55 | > 25 | 11 | > 25 | 5.99 | > 25 | 14.3 | > 25 | 4.54 | 18.5 | 5.72 | > 25 | 14.2 | > 25 | 12.5 | > 25 | 7.39 | > 21 | 9.64 | > 25
CC(C)=C1CCC(CN2CCOCC2)C1=O (configuration not stated) | – | 14.6 | – | 29.3 | – | > 51.4 | – | 48.9 | – | 19 | – | 32.5 | – | 5.54 | – | 7 | – | 36.6 | – | > 93.5
Nc1ccccc1C(=O)NC(=O)Nc1ccc(Oc2ncc(Br)cn2)c(Cl)c1 | – | 2.08 | – | 0.19 | – | 9.56 | – | 12.4 | – | 13.8 | – | 51.7 | 0.0511 | 33.9 | – | 11.6 | – | 5.65 | – | 4.03
COc1cc2c3c(c1OC)C(=O)C=C3N(S(=O)(=O)c1ccc(C)cc1)CC2 | – | > 100 | – | > 100 | – | > 100 | – | > 100 | – | > 100 | – | > 100 | – | > 100 | – | > 100 | – | > 100 | – | > 100
COc1ccc2nc3cccc([N+](=O)[O-])c3c(NCCNCCN(C)C)c2c1 | 0.0734 | 0.208 | 0.0269 | 0.115 | 0.142 | 0.414 | 0.0376 | 0.404 | 0.194 | 1.09 | 0.0375 | 0.467 | 0.022 | 0.192 | 0.205 | 0.538 | 0.0308 | 0.107 | 0.183 | 0.698
Cc1nc(Sc2nc3ccc([N+](=O)[O-])cc3s2)sc1C | 1.82 | 4.14 | 12.5 | 25.2 | 3.89 | 14.6 | 1.99 | 7.9 | 2.05 | 7.87 | 2.84 | 11.8 | 0.288 | 3.45 | 1.4 | 3.9 | 1.6 | 4.53 | 3.81 | 14.2
COc1ccc2[nH]c(C(=O)OCc3ccc4cccc(O)c4n3)cc2c1 | 0.564 | 2.04 | 1.43 | 2.92 | 1.94 | 3.9 | 1.67 | 3.15 | 1.81 | 3.27 | 1.45 | 2.96 | 0.641 | 2.99 | 1.52 | 2.89 | 1.74 | 3.72 | 1.52 | 3.5
Nc1ccc(-c2ccc3ncc4ccc(=O)n(-c5cccc(C(F)(F)F)c5)c4c3c2)cn1 | < 0.01 | 0.266 | < 0.0118 | 1.6 | < 0.0112 | 1.45 | < 0.01 | 0.948 | < 0.016 | 0.275 | < 0.0145 | 31.5 | < 0.012 | 0.402 | < 0.01 | 0.0315 | < 0.01 | 0.0572 | < 0.01 | 1.47
COc1ccc2c(c1)O/C(=C\c1cccc(OCC(=O)Nc3nc(C)c(C)s3)c1)C2=O | 0.175 | 0.368 | 9.43 | > 100 | 1.02 | – | 1.62 | 3.08 | 5.41 | > 100 | 3.79 | > 26.3 | 3.38 | > 22.5 | 1.8 | 3.92 | 1.68 | 3.22 | 0.542 | 1.13
O=c1[nH]c(=O)n(C2CC(O)C(CO)O2)cc1COCC(F)(F)F (configuration not stated) | – | > 100 | – | > 100 | – | > 100 | – | > 100 | – | > 100 | – | > 100 | – | > 100 | – | > 100 | – | > 100 | – | > 100
NCCOc1ncccc1/C=C1\c2ccccc2-c2ccc([N+](=O)[O-])cc21 | 0.0439 | 0.322 | 0.137 | 0.322 | 0.11 | 0.546 | 0.0269 | 0.303 | 0.126 | 0.282 | 0.211 | 0.68 | < 0.01 | 0.0746 | 0.055 | 0.275 | 0.314 | 0.754 | 0.0261 | 0.133
CN1CCN(CCCOc2cccc3nc(Nc4ccc(F)c(F)c4)ccc23)CC1 | 0.68 | 1.49 | 4.56 | 9.08 | 2.35 | 7.78 | 2.68 | 7.2 | 2.63 | 6.94 | 4.71 | 9.73 | 1.31 | 5.66 | 1.44 | 6.05 | 3.95 | 8.62 | 1.25 | 5.34
Cn1cncc1-c1c(F)cncc1NC(=O)c1c(N)nn2cc(F)cnc12 | 0.231 | 91.4 | 0.0612 | > 100 | 1.52 | > 100 | 4.48 | > 100 | 4.54 | 83.7 | 13 | > 100 | 0.203 | 1.1 | 5.16 | 68.5 | 0.0751 | 0.397 | 5.21 | > 100
CC(C)C(=S)N(C)O | – | > 100 | – | > 100 | – | > 72.9 | – | > 100 | – | > 91.4 | – | > 100 | – | > 24.7 | – | > 100 | – | 72.3 | – | > 93.3
CCOC(=O)C#Cc1c(C(=O)OCC)nnn1[C@@H]1O[C@H](CO)[C@H]2OC3(CCCCC3)O[C@H]21 | 2.67 | 7.6 | 18 | 32.8 | 12.2 | 27 | 11.2 | 23.2 | 1.79 | 3.28 | 8.09 | 22.6 | 1.95 | 5.42 | 1.87 | 3.76 | 17.7 | 34 | 17.7 | 33.7
OC(COc1ccccc1)CN1CCCCC1 (configuration not stated) | – | > 100 | – | > 100 | – | > 100 | – | > 100 | – | > 100 | – | > 100 | – | > 100 | – | > 100 | – | > 100 | – | > 100
